In this experiment the target is T1, Human M4 (Homo sapiens, UniProt P08173).
T1 construct: expressed in transfected cells
T1 sequence (P08173 1-479): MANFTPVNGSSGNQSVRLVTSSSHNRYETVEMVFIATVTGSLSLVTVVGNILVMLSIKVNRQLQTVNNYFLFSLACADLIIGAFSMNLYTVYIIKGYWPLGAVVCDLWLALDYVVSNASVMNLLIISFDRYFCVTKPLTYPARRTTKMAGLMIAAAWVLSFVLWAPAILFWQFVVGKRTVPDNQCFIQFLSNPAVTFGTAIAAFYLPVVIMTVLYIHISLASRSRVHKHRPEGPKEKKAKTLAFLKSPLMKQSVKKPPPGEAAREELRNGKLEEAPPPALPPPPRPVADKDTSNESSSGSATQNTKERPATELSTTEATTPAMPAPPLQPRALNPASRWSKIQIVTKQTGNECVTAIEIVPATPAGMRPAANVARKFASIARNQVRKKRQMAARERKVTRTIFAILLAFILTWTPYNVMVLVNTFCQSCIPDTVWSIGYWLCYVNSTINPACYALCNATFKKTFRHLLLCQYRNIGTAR
Put plainly: mAChR M4 cell-based functional assay (calcium flux, potentiation of EC20 acetylcholine response), hM4-Gqi5 CHO-K1 cells. Particulars: Table 3; for Emax at 30 µM: CHO-K1, Human M4, % ACh maximum at 30 μM, read-out: Emax (% ACh maximum at 30 μM); for pEC50: potentiation of EC20 acetylcholine response, calcium flux, CHO-K1 cells, read-out: Human M4 EC50. A digest of the protocol:
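CHO-K1 cells stably expressing human M4 with chimeric Gqi5, loaded with Fluo-4 AM 50 min at 37 °C; calcium flux read by FDSS. 11-point 1:3 compound curves added, then EC20 acetylcholine at 144 s; potentiation of the EC20 response fitted by four-parameter logistic to give EC50 and Emax.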

pEC50: −log10 of the molar value.

`Cc1c(N2CCc3ncc(C(F)(F)F)cc3C2)nn2c(Cl)nnc2c1C` [Compound 268, 6-(3-Chloro-7,8-dimethyl-[1,2,4]triazolo[4,3-b]pyridazin-6-yl)-3-(trifluoromethyl)-7,8-dihydro-5H-1,6-naphthyridine]: the Emax at 30 µM amounted to 95% and the pEC50 is 6.84.

Regarding `Cc1c(N2Cc3cc(C(F)(F)F)cnc3C(C)(C)C2)nn2cnnc2c1C` [Compound 269, 6-(7,8-Dimethyl-[1,2,4]triazolo[4,3-b]pyridazin-6-yl)-8,8-dimethyl-3-(trifluoromethyl)-5,6,7,8-tetrahydro-1,6-naphthyridine], the maximum response (Emax) at 30 µM was 42% and the pEC50 was 5.78.

Turning to `COc1nnc2c(C)c(C)c(N3CCc4ncc(C(F)(F)F)cc4C3)nn12` [Compound 270, 6-(3-Methoxy-7,8-dimethyl-[1,2,4]triazolo[4,3-b]pyridazin-6-yl)-3-(trifluoromethyl)-7,8-dihydro-5H-1,6-naphthyridine], the Emax at 30 µM came out at 97% and the pEC50 is 6.77.

As to `Cc1c(N2CCc3ncc(N4CCOCC4)cc3C2)nn2c(C(F)(F)F)nnc2c1C` [Compound 271, 4-(6-(7,8-dimethyl-3-(trifluoromethyl)-[1,2,4]triazolo[4,3-b]pyridazin-6-yl)-5,6,7,8-tetrahydro-1,6-naphthyridin-3-yl)morpholine], the Emax at 30 µM came to 89% and the negative-log EC50 (pEC50) was 6.58.

As to `Cc1c(N2CCc3ncc(NC4CCCC4)cc3C2)nn2c(C(F)(F)F)nnc2c1C` [Compound 272, N-cyclopentyl-6-(7,8-dimethyl-3-(trifluoromethyl)-[1,2,4]triazolo[4,3-b]pyridazin-6-yl)-5,6,7,8-tetrahydro-1,6-naphthyridin-3-amine], the Emax at 30 µM was 87% and the pEC50 is 6.08.

On to `Cc1c(N2CCc3ncc(N4CCC5OCCCC5C4)cc3C2)nn2c(C(F)(F)F)nnc2c1C` (stereo not shown) [Compound 273, 6-(6-(7,8-dimethyl-3-(trifluoromethyl)-[1,2,4]triazolo[4,3-b]pyridazin-6-yl)-5,6,7,8-tetrahydro-1,6-naphthyridin-3-yl)octahydro-2H-pyrano[3,2-c]pyridine], for which the Emax at 30 µM stood at 83% and the pEC50 is 6.09.

With `Cc1c(N2CCc3ncc(N4CCC5(CC4)COC5)cc3C2)nn2c(C(F)(F)F)nnc2c1C` [Compound 274, 7-(6-(7,8-dimethyl-3-(trifluoromethyl)-[1,2,4]triazolo[4,3-b]pyridazin-6-yl)-5,6,7,8-tetrahydro-1,6-naphthyridin-3-yl)-2-oxa-7-azaspiro[3.5]nonane], the Emax at 30 µM was found to be 65% and the pEC50 was 5.48.

As to `Cc1c(N2CCc3ncc(N4CCCC4)cc3C2)nn2c(C(F)(F)F)nnc2c1C` [Compound 275, 6-(7,8-dimethyl-3-(trifluoromethyl)-[1,2,4]triazolo[4,3-b]pyridazin-6-yl)-3-(pyrrolidin-1-yl)-5,6,7,8-tetrahydro-1,6-naphthyridine], the Emax at 30 µM came to 74% and the pEC50 is 6.03.

For the molecule `Cc1c(N2CCc3ncc(N4CCN(C)CC4)cc3C2)nn2c(C(F)(F)F)nnc2c1C` [Compound 276, 6-(7,8-dimethyl-3-(trifluoromethyl)-[1,2,4]triazolo[4,3-b]pyridazin-6-yl)-3-(4-methylpiperazin-1-yl)-5,6,7,8-tetrahydro-1,6-naphthyridine], the Emax at 30 µM was 65% and the pEC50 is 5.71.

In the case of `Cc1c(N2CCc3ncc(Oc4ccccc4F)cc3C2)nn2c(C(F)(F)F)nnc2c1C` [Compound 277, 6-(7,8-dimethyl-3-(trifluoromethyl)-[1,2,4]triazolo[4,3-b]pyridazin-6-yl)-3-(2-fluorophenoxy)-5,6,7,8-tetrahydro-1,6-naphthyridine], the Emax at 30 µM is 85% and the pEC50 was 6.41.

Turning to `Cc1c(N2CCc3ncc(Oc4cccc(F)c4)cc3C2)nn2c(C(F)(F)F)nnc2c1C` [Compound 278, 6-(7,8-dimethyl-3-(trifluoromethyl)-[1,2,4]triazolo[4,3-b]pyridazin-6-yl)-3-(3-fluorophenoxy)-5,6,7,8-tetrahydro-1,6-naphthyridine], the Emax at 30 µM stood at 84% and the pEC50 is 6.08.

On to `Cc1c(N2CCc3ncc(NC4CCOC4)cc3C2)nn2c(C(F)(F)F)nnc2c1C` (stereo not shown) [Compound 279, 6-(7,8-dimethyl-3-(trifluoromethyl)-[1,2,4]triazolo[4,3-b]pyridazin-6-yl)-N-(tetrahydrofuran-3-yl)-5,6,7,8-tetrahydro-1,6-naphthyridin-3-amine], for which the maximal response (Emax) at 30 µM was found to be 86% and the pEC50 was 6.00.

For `Cc1c(N2CCc3ncc(N4CCC(F)(F)CC4)cc3C2)nn2c(C(F)(F)F)nnc2c1C` [Compound 280, 3-(4,4-difluoropiperidin-1-yl)-6-(7,8-dimethyl-3-(trifluoromethyl)-[1,2,4]triazolo[4,3-b]pyridazin-6-yl)-5,6,7,8-tetrahydro-1,6-naphthyridine], the Emax at 30 µM came out at 85% and the pEC50 was 6.16.

Consider `Cc1c(N2CCc3ncc(N4CCCCC4)cc3C2)nn2c(C(F)(F)F)nnc2c1C` [Compound 281, 6-(7,8-dimethyl-3-(trifluoromethyl)-[1,2,4]triazolo[4,3-b]pyridazin-6-yl)-3-(piperidin-1-yl)-5,6,7,8-tetrahydro-1,6-naphthyridine], for which the Emax at 30 µM is 76% and the pEC50 was 6.13.

As for `Cc1c(N2CCc3ncc(N4CCOc5ncccc54)cc3C2)nn2c(C(F)(F)F)nnc2c1C` [Compound 282, 1-(6-(7,8-dimethyl-3-(trifluoromethyl)-[1,2,4]triazolo[4,3-b]pyridazin-6-yl)-5,6,7,8-tetrahydro-1,6-naphthyridin-3-yl)-2,3-dihydro-1H-pyrido[2,3-b][1,4]oxazine], the Emax at 30 µM worked out at 87% and the pEC50 was 7.19.

Regarding `Cc1c(N2CCc3nnc(Cl)cc3C2)nn2c(C(F)(F)F)nnc2c1C` [Compound 283, 3-chloro-6-(7,8-dimethyl-3-(trifluoromethyl)-[1,2,4]triazolo[4,3-b]pyridazin-6-yl)-5,6,7,8-tetrahydropyrido[4,3-c]pyridazine], the Emax at 30 µM is 89% and the pEC50 was 5.66.

Consider `Cc1c(N2CCc3ncc(N4CCCn5nccc54)cc3C2)nn2c(Cl)nnc2c1C` [Compound 284, 6-(3-chloro-7,8-dimethyl-[1,2,4]triazolo[4,3-b]pyridazin-6-yl)-3-(6,7-dihydropyrazolo[1,5-a]pyrimidin-4(5H)-yl)-5,6,7,8-tetrahydro-1,6-naphthyridine], for which the Emax at 30 µM came to 53% and the pEC50 is 6.26.

Consider `Cc1c(N2CCc3ncc(C(F)c4ccccc4)cc3C2)nn2c(C(F)(F)F)nnc2c1C` (stereo not shown) [Compound 285, 6-(7,8-dimethyl-3-(trifluoromethyl)-[1,2,4]triazolo[4,3-b]pyridazin-6-yl)-3-(fluoro(phenyl)methyl)-5,6,7,8-tetrahydro-1,6-naphthyridine], for which the Emax at 30 µM came out at 88% and the pEC50 is 5.98.

Regarding `Cc1c(N2CCc3ncc(N4CCOC(C)(C)C4)cc3C2)nn2c(C(F)(F)F)nnc2c1C` [Compound 286, 4-(6-(7,8-dimethyl-3-(trifluoromethyl)-[1,2,4]triazolo[4,3-b]pyridazin-6-yl)-5,6,7,8-tetrahydro-1,6-naphthyridin-3-yl)-2,2-dimethylmorpholine], the Emax at 30 µM is 94% and the pEC50 was 6.99.

Regarding `COC1CCN(c2cnc3c(c2)CN(c2nn4c(C(F)(F)F)nnc4cc2C)CC3)C1` (stereo not shown) [Compound 287, 3-(3-methoxypyrrolidin-1-yl)-6-(7-methyl-3-(trifluoromethyl)-[1,2,4]triazolo[4,3-b]pyridazin-6-yl)-5,6,7,8-tetrahydro-1,6-naphthyridine], the Emax at 30 µM came to 82% and the pEC50 is 5.63.

Take `COC1CCN(c2cnc3c(c2)CN(c2nn4c(C(F)(F)F)nnc4c(C)c2C)CC3)C1` (stereo not shown) [Compound 288, 6-(7,8-dimethyl-3-(trifluoromethyl)-[1,2,4]triazolo[4,3-b]pyridazin-6-yl)-3-(3-methoxypyrrolidin-1-yl)-5,6,7,8-tetrahydro-1,6-naphthyridine]: the Emax at 30 µM is 77% and the pEC50 was 6.03.

For the molecule `Cc1ccc(Oc2cnc3c(c2)CN(c2nn4cnnc4c(C)c2C)CC3)c(F)c1` [Compound 289, 6-(7,8-dimethyl-[1,2,4]triazolo[4,3-b]pyridazin-6-yl)-3-(2-fluoro-4-methylphenoxy)-5,6,7,8-tetrahydro-1,6-naphthyridine], the maximal effect (Emax) at 30 µM was determined as 102% and the pEC50 is 6.58.

For the molecule `Cc1ccc(Oc2cnc3c(c2)CN(c2nn4c(C(F)(F)F)nnc4cc2C)CC3)c(F)c1` [Compound 290, 3-(2-fluoro-4-methylphenoxy)-6-(7-methyl-3-(trifluoromethyl)-[1,2,4]triazolo[4,3-b]pyridazin-6-yl)-5,6,7,8-tetrahydro-1,6-naphthyridine], the Emax at 30 µM worked out at 69% and the pEC50 was 5.77.

The values above are taken from patent US20250002507A1, “7,8-DIHYDRO-5H-1,6-NAPHTHYRIDINE DERIVATIVES AS POSITIVE ALLOSTERIC MODULATORS OF THE MUSCARINIC ACETYLCHOLINE RECEPTOR M4 FOR TREATING NEUROLOGICAL AND PSYCHIATRIC DISORDERS” (Vanderbilt University, priority 2021, published 2025).
